In ChEMBL document CHEMBL4507261, “Data for DCP probe A-192621” (2021):

Assays:
Conditions in all cases: Compound concentration 10.0 uM
[1] = target: T1, 5-hydroxytryptamine receptor 2C (Homo sapiens) (UniProt P28335)
T1 sequence (whole entry): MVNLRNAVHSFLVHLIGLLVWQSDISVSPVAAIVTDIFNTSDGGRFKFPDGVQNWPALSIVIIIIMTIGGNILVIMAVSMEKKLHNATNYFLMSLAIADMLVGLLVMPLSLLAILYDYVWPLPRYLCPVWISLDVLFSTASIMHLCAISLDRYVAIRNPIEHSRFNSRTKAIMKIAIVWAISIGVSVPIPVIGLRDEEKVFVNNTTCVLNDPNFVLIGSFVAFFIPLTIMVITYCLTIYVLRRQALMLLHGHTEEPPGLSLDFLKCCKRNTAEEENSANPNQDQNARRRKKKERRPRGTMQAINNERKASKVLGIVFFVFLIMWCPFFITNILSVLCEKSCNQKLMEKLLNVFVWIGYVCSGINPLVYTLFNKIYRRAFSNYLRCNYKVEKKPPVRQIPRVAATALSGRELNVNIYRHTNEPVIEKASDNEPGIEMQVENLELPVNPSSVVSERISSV

[2] = target: D(3) dopamine receptor (Homo sapiens) (UniProt P35462)
[3] = target: Alpha-1D adrenergic receptor (Homo sapiens) (UniProt P25100)
[4] = target: Sigma intracellular receptor 2 (Homo sapiens) (UniProt Q5BJF2)

Measured: inhibition

Sequence of Alpha-1D adrenergic receptor (Homo sapiens) (P25100 whole entry): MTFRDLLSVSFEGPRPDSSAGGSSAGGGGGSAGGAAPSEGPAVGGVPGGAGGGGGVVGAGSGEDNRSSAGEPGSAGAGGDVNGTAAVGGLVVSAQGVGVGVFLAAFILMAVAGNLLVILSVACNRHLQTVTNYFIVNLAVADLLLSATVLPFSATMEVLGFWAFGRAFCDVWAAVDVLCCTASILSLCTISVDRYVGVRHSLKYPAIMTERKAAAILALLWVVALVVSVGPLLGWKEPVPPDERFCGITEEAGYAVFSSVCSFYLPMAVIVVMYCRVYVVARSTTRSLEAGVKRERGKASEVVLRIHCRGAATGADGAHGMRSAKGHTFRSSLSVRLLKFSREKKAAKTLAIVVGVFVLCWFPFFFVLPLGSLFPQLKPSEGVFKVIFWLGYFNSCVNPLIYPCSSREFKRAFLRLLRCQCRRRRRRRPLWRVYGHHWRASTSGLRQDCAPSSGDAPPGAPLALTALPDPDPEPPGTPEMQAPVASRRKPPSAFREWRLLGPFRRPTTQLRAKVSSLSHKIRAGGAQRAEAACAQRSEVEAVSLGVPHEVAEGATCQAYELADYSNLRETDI
Sequence of D(3) dopamine receptor (Homo sapiens) (P35462 whole entry): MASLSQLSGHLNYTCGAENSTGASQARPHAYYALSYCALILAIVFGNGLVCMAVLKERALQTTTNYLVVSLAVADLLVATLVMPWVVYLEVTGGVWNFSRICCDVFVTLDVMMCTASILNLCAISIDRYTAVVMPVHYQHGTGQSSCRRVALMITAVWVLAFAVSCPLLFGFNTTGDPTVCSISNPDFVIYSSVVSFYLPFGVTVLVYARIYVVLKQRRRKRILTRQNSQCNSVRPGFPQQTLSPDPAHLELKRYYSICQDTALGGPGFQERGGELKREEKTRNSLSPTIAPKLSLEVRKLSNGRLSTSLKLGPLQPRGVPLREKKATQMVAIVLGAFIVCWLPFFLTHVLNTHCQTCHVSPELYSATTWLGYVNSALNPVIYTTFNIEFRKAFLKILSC
Sequence of Sigma intracellular receptor 2 (Homo sapiens) (Q5BJF2 whole entry): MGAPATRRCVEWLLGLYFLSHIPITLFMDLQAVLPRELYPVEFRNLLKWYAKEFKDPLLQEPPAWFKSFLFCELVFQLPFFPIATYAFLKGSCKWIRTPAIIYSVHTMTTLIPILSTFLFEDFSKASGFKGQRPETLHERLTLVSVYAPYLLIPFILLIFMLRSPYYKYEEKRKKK

CCCOc1ccc([C@H]2[C@H](C(=O)O)[C@@H](c3ccc4c(c3)OCO4)CN2CC(=O)Nc2c(CC)cccc2CC)cc1 [A-192621]
inactive: [1] -5.44% | [2] -5.43% | [3] -1.79% | [4] -7.1%
